Results: patent US20260373138A1, “COMPOUNDS WITH ANTIFUNGAL PROPERTIES” (priority 2023, published 2026)

Tests used:
[1] = system: A. fumigatus CEA10 reference strain; assay: Fluconazole potentiator screen: MIC by CLSI microbroth dilution with and without fluconazole; assay type: cell-based, Aspergillus fumigatus; settings: 18 h; for MIC: Aspergillus fumigatus, read-out: MIC (ug/mL) (−) Fluc; for MIC (ug/mL) (+) Fluc: with 32 μg/ml fluconazole, normoxia, GMM, 37 °C
[2] = system: Aspergillus fumigatus SrbA pathway; settings: phenotype of SrbA pathway inhibition, previously published; cited from earlier work

SMILES	MIC [1]	MIC (ug/mL) (+) Fluc [1]	MIC to fluconazole [2]
O=S(=O)(c1cccc(F)c1)N1CCC(Cc2ccc(CN3CC4CC(C3)O4)cc2)CC1 [MBX-8221]	> 17 µg/mL	>22 µg/mL	
O=S(=O)(c1cccc(F)c1)N1CCC(Cc2ccc(N3CCOCC3)cc2)CC1 [MBX-8222]	> 21 µg/mL	>21 µg/mL	
O=S(=O)(c1cc(F)cc(F)c1)N1CCC(Cc2ccc(CN3CCOCC3)cc2)CC1 [MBX-8223]	12.6 µg/mL	3.50 µg/mL	
O=S(=O)(c1ccc(C(F)(F)F)cc1)N1CCC(Cc2ccc(CN3CCOCC3)cc2)CC1 [MBX-8224]	1.1 µg/mL	0.50 µg/mL	
Nc1cc(OCc2ccc(CC3CCN(C(=O)c4ccsc4)CC3)cc2)ccn1 [MBX-8226]	20 µg/mL	11.00 µg/mL	
O=C(c1ccsc1)N1CCC(Cc2ccc(COc3ccncc3)cc2)C1 (stereo not shown) [MBX-8240]	4.73 µg/mL	2.37 µg/mL	
O=S(=O)(c1ccsc1)N1CC2(CN(CCOc3ccncc3)C2)C1 [MBX-8241]	> 18 µg/mL	>18 µg/mL	
O=C1c2ccsc2CCN1Cc1ccc(COc2ccncc2)cc1 [MBX-8243]	8.76 µg/mL	4.92 µg/mL	
O=S(=O)(c1cccc(F)c1)N1CCC(Cc2ccc(CN3CC4(COC4)C3)cc2)CC1 [MBX-8244]	> 22 µg/mL	>22 µg/mL	
O=S(=O)(c1cccs1)N1CCC2(CC1)CC(CCN1CCOCC1)CCO2 (stereo not shown) [MBX-8245]	> 20 µg/mL	>20 µg/mL	
O=S(=O)(c1cccs1)N1CCC2(CC1)CC(CCO)CCO2 (stereo not shown) [MBX-8248]	> 17 µg/mL	>17 µg/mL	
O=C(c1csc(Cl)c1)N1CCN(Cc2ccc(CN3CCOCC3)cc2)CC1 [MBX-8249]	> 21 µg/mL	21.00 µg/mL	
O=S(=O)(c1cccs1)N1CCC2(CC1)C[C@H](CCOc1ccncc1)CCO2 [MBX-8250]	2.64 µg/mL	0.52 µg/mL	
O=S(=O)(c1cccs1)N1CCC2(CC1)C[C@@H](CCOc1ccncc1)CCO2 [MBX-8251]	5.28 µg/mL	1.32 µg/mL	
O=S(=O)(c1ccccc1F)N1CCC(Cc2ccc(CN3CCOCC3)cc2)CC1 [MBX-8252]	5.4 µg/mL	1.07 µg/mL	
O=C(c1ccsc1)N1CCC(Cc2ccc(COc3ccnc(Cl)c3)cc2)CC1 [MBX-8253]	> 21 µg/mL	>21 µg/mL	
CC1CC(Cc2ccc(CN3CCOCC3)cc2)CCN1S(=O)(=O)c1cccc(F)c1 (stereo not shown) [MBX-8281]	7.03 µg/mL	1.40 µg/mL	
O=S(=O)(c1ccc(F)cc1)N1CCC(Oc2ccc(CN3CCOCC3)cc2)CC1 [MBX-8282]	5.43 µg/mL	1.36 µg/mL	
O=S(=O)(NC1CCC(Cc2ccc(CN3CCOCC3)cc2)CC1)c1ccc(F)cc1 (stereo not shown) [MBX-8283]	> 22 µg/mL	>22 µg/mL	
O=S(=O)(NC1CCN(Cc2ccc(CN3CCOCC3)cc2)CC1)c1ccc(F)cc1 [MBX-8284]	> 22 µg/mL	>22 µg/mL	
O=C(c1ccsc1)N1CC2(CC(CCOc3ccncc3)C2)C1 [MBX-8285]	4.11 µg/mL	2.05 µg/mL	
O=C(c1ccsc1)N1CC(Cc2ccc(COc3ccncc3)cc2)C1 [MBX-8305]	9.1 µg/mL	4.50 µg/mL	

SMILES	MIC [1]	MIC (ug/mL) (+) Fluc [1]	MIC to fluconazole [2]
O=S(=O)(c1ccsc1)N1CC2(CC(CCOc3ccncc3)C2)C1 [MBX-8306]	9.1 µg/mL	4.50 µg/mL	
O=S(=O)(c1ccsc1)N1CCc2cc(COc3ccncc3)ccc2C1 [MBX-8307]	4.8 µg/mL	2.40 µg/mL	
O=C(c1ccsc1)N1CCc2cc(COc3ccncc3)ccc2C1 [MBX-8308]	4.3 µg/mL	1.90 µg/mL	
O=C(c1ccsc1)N1CCC(Oc2ccc(COc3ccncc3)cc2)CC1 [MBX-8309]	19 µg/mL	19.00 µg/mL	
O=S(=O)(c1cccs1)N1CCC2(CC1)CN(CCOc1ccncc1)CCO2 [MBX-8310]	21 µg/mL	5.20 µg/mL	
O=S(=O)(NC1CC2(CC(Cc3ccc(CN4CCOCC4)cc3)C2)C1)c1ccc(F)cc1 (stereo not shown) [MBX-8311]	19 µg/mL	22.00 µg/mL	
O=C(NC1CCN(Cc2ccc(COc3ccncc3)cc2)CC1)c1ccsc1 [MBX-8312]	> 20 µg/mL	>20 µg/mL	
O=C(c1ccsc1)N1CCC(Cc2ccc(COc3ccncc3)nc2)CC1 [MBX-8323]	2.4 µg/mL	1.20 µg/mL	
O=S(=O)(c1ccc(F)cc1)N1CCC(Cc2ccc(CN3CCOCC3)cc2F)CC1 [MBX-8324]	1.2 µg/mL	0.17 µg/mL	
O=S(=O)(c1ccc(F)cc1)C1CCN(Cc2ccc(CN3CCOCC3)cc2)CC1 [MBX-8325]	> 20 µg/mL	>20 µg/mL	
O=S(=O)(c1ccc(F)cc1)N1CC2(CC(Cc3ccc(CN4CCOCC4)cc3)C2)C1 [MBX-8345]	> 22 µg/mL	11.00 µg/mL	
Cc1cc(CN2CCOCC2)ccc1CC1CCN(S(=O)(=O)c2ccc(F)cc2)CC1 [MBX-8346]	1.1 µg/mL	0.15 µg/mL	
O=S(=O)(c1ccc(F)cc1)N1CCC(Cc2ccc(CC3CCOCC3)cc2)CC1 [MBX-8347]	> 21 µg/mL	>21 µg/mL	
O=C1c2ccsc2CCN1Cc1ccc(CCOc2ccncc2)cc1 [MBX-8354]	9 µg/mL	14.00 µg/mL	
O=S(=O)(c1cccc(F)c1)N1CCC(C(O)c2ccc(CN3CCOCC3)cc2)CC1 (stereo not shown) [MBX-8355]	> 22 µg/mL	>22 µg/mL	
O=S(=O)(c1ccc(F)cc1)N1CCC(Cc2ccc(CN3CCOCC3)c(F)c2)CC1 [MBX-8356]	0.6 µg/mL	0.09 µg/mL	
CC(c1ccc(CC2CCN(S(=O)(=O)c3ccc(F)cc3)CC2)cc1)N1CCOCC1 (stereo not shown) [MBX-8357]	> 22 µg/mL	5.60 µg/mL	
CC(c1ccc(CC2CCN(S(=O)(=O)c3cccc(F)c3)CC2)cc1)N1CCOCC1 (stereo not shown) [MBX-8358]	2.79 µg/mL	0.44 µg/mL	
CC(C1CCN(Cc2ccc(CN3CCOCC3)cc2)CC1)S(=O)(=O)c1ccc(F)cc1 (stereo not shown) [MBX-8359]	> 23 µg/mL	>23 µg/mL	
N=S(=O)(c1ccc(F)cc1)N1CCC(Cc2ccc(CN3CCOCC3)cc2)CC1 (stereo not shown) [MBX-8389]	> 43 µg/mL	>43 µg/mL	
O=S(=O)(c1ccc(F)cc1)N1CCC(Cc2ccc(CN3CCOCC3)cc2)C1 (stereo not shown) [MBX-8390]	2 µg/mL	0.40 µg/mL	
O=S(=O)(c1ccc(F)cc1)N1CCC(Cc2ccc(COc3ccncc3)cc2)C1 (stereo not shown) [MBX-8391]	1 µg/mL	0.20 µg/mL	

SMILES	MIC [1]	MIC (ug/mL) (+) Fluc [1]	MIC to fluconazole [2]
O=C(c1ccc(C(F)(F)F)nc1)N1CCC(Cc2ccc(CN3CCOCC3)cc2)C1 (stereo not shown) [MBX-8392]	> 43 µg/mL	>43 µg/mL	
O=S(=O)(c1ccc(C(F)(F)F)nc1)N1CCC(Cc2ccc(COc3ccncc3)cc2)C1 (stereo not shown) [MBX-8393]	> 47 µg/mL	>47 µg/mL	
O=C(c1cccs1)N1CCC2(CC1)CC(CCOc1ccncc1)CCO2 (stereo not shown) [MBX-8394]	19 µg/mL	9.70 µg/mL	
O=S(=O)(c1ccc(F)cc1)N1CCC(Cc2ccc(Cc3ccncc3)cc2)CC1 [MBX-8428]	10.6 µg/mL	6.37 µg/mL	
O=C(c1ccsc1)N1CCC(Cc2ccc(CN3CCOCC3)cc2)C1 (stereo not shown) [MBX-8429]	18.5 µg/mL	18.53 µg/mL	
O=C(c1ccsc1)N1CC[C@@H](Cc2ccc(COc3ccncc3)cc2)C1 [MBX-8431]	3.78 µg/mL	1.14 µg/mL	
O=C(c1ccsc1)N1CC[C@H](Cc2ccc(COc3ccncc3)cc2)C1 [MBX-8432]	4.16 µg/mL	1.51 µg/mL	
O=C(c1ccc(Cl)s1)N1CCC2(CC1)CC(CCOc1ccncc1)CCO2 (stereo not shown) [MBX-8433]	2.53 µg/mL	0.84 µg/mL	
O=S(=O)(c1cccs1)N1CCC2(CCc3cc(Oc4ccncc4)ccc3O2)CC1 [MBX-8435]	> 22 µg/mL	>22 µg/mL	
CN1CCN(Cc2ccc(CC3CCN(S(=O)(=O)c4ccc(F)cc4)CC3)cc2)CC1 [MBX-8436]	4.46 µg/mL	0.45 µg/mL	
O=S(=O)(c1ccc(F)cc1)N1CCC(Cc2ccc(CN3CCN(CC(F)(F)F)CC3)cc2)CC1 [MBX-8438]	> 25 µg/mL	>25 µg/mL	
CN(C)Cc1ccc(CC2CCN(S(=O)(=O)c3ccc(F)cc3)CC2)cc1 [MBX-8439]	9.76 µg/mL	0.78 µg/mL	
O=C(c1ccsc1)N1CCC(Cc2ccc(COc3ccncn3)cc2)CC1 [MBX-8529]	9.84 µg/mL	>15 µg/mL	
O=C(c1ccsc1)N1CCC(Cc2ccc(COc3ccncc3)cn2)CC1 [MBX-8619]	4.92 µg/mL	1.23 µg/mL	
O=S(=O)(c1ccc(F)cc1)N1CCC(Cc2ccc(CN3CCN4CCC[C@H]4C3)cc2)CC1 [MBX-8668]	11.8 µg/mL	1.47 µg/mL	
O=S(=O)(c1ccc(F)cc1)N1CCC(Cc2ccc(CN3CCn4cncc4C3)cc2)CC1 [MBX-8684]	7.38 µg/mL	1.30 µg/mL	
CN1CCc2cc(CC3CCN(S(=O)(=O)c4ccc(F)cc4)CC3)ccc2C1 [MBX-8700]	8.97 µg/mL	1.26 µg/mL	
CN1CCN(c2ccc(CC3CCN(S(=O)(=O)c4ccc(F)cc4)CC3)cc2)CC1 [MBX-8701]	0.67 µg/mL	0.19 µg/mL	
O=C(c1ccsc1)N1CCN(Cc2ccc(-c3ccncc3)cc2)CC1 [MBX-8702]	1.14 µg/mL	0.32 µg/mL	
OC(Cn1cncn1)(Cn1cncn1)c1ccc(F)cc1F [fluconazole]			< 8 µg/mL
